Measurements taken from ChEMBL document CHEMBL5653631, “A Potent and Selective ULK1 Inhibitor Suppresses Autophagy and Sensitizes Cancer Cells to Nutrient Stress” (iScience, 2018).
Blank lines part the entries; values can stand above or below the compound they belong to.

Experiments:
[1] = target: T1, Ephrin type-B receptor 3 (Homo sapiens) (UniProt P54753); assay: Inhibition of human recombinant EphB3 at 500 nM related to control ULK1
T1 sequence (whole entry): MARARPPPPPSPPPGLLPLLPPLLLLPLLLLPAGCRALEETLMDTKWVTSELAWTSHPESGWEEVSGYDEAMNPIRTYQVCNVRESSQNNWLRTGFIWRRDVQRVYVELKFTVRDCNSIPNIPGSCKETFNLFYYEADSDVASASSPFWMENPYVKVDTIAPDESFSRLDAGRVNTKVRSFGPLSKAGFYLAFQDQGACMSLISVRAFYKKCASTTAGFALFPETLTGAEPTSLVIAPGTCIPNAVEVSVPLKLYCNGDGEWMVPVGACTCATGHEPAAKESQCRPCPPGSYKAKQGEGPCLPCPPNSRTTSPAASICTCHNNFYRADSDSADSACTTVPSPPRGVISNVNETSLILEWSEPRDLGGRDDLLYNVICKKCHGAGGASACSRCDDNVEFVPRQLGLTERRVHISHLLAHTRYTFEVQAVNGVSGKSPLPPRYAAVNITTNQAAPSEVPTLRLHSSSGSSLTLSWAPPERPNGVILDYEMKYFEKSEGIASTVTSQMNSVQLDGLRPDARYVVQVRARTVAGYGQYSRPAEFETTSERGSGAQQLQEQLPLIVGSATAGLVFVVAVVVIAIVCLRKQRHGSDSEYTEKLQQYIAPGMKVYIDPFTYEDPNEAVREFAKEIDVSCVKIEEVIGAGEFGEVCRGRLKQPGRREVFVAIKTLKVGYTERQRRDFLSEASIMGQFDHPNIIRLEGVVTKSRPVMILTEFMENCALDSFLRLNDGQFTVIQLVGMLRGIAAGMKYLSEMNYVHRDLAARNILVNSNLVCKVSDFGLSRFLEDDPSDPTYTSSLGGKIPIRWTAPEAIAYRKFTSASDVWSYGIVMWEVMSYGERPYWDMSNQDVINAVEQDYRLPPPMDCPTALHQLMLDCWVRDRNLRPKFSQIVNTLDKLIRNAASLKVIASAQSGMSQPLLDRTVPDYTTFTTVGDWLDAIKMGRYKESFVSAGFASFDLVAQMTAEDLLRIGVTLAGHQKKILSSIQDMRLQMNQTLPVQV

[2] = target: Casein kinase I isoform gamma-1 (Homo sapiens) (UniProt Q9HCP0); assay: Inhibition of human recombinant CK1g1 at 40 nM in presence of ATP by radiometric assay relative to control
[3] = target: T2, Mitogen-activated protein kinase kinase kinase 3 (Homo sapiens) (UniProt Q99759); assay: Inhibition of human recombinant MAP3K3 at 40 nM in presence of ATP by radiometric assay relative to control
T2 sequence (whole entry): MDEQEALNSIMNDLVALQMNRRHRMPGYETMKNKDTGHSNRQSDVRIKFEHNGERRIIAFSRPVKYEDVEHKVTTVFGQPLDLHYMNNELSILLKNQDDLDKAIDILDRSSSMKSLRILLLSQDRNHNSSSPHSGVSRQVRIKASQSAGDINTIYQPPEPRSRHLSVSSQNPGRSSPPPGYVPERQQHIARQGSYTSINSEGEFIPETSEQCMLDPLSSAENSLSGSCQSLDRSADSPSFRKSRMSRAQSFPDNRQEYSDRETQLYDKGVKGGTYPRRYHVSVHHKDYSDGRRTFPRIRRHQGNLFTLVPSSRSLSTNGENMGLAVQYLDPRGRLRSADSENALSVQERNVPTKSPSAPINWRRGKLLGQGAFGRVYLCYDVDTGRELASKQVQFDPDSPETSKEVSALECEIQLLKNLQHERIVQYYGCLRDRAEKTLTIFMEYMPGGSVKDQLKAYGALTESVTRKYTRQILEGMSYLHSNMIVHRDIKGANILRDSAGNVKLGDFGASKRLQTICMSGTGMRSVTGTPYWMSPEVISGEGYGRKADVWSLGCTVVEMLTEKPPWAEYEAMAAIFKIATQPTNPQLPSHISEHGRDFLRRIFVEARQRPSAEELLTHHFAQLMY

[4] = target: High affinity nerve growth factor receptor (Homo sapiens) (UniProt P04629); assay: Inhibition of human recombinant TRKA at 40 nM in presence of ATP by radiometric assay relative to control
Sequence of High affinity nerve growth factor receptor (Homo sapiens) (P04629 33-796 limits assumed): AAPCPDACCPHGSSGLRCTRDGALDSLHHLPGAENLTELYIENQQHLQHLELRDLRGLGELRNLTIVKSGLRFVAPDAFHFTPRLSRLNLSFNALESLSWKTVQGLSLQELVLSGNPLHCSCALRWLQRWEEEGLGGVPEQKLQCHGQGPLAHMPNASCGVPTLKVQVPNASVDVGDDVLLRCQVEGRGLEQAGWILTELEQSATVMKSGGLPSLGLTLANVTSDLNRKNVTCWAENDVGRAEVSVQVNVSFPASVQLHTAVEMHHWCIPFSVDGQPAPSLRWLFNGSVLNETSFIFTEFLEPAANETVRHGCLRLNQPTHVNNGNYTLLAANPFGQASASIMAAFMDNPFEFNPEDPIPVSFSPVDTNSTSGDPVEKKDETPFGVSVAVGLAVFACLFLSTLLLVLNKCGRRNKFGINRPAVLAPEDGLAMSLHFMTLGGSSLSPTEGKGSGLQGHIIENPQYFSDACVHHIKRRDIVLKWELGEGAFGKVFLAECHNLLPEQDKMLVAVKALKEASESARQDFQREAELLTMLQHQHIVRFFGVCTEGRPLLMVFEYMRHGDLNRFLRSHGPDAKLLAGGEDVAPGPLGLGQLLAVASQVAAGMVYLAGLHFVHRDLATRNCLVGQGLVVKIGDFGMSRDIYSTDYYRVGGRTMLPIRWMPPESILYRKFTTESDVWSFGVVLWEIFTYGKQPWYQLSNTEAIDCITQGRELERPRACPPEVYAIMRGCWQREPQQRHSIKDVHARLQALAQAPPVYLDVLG

[5] = target: T3, Testis-specific serine/threonine-protein kinase 1 (Homo sapiens) (UniProt Q9BXA7); assay: Inhibition of human recombinant TSSK1 at 40 nM in presence of ATP by radiometric assay relative to control
T3 sequence (whole entry): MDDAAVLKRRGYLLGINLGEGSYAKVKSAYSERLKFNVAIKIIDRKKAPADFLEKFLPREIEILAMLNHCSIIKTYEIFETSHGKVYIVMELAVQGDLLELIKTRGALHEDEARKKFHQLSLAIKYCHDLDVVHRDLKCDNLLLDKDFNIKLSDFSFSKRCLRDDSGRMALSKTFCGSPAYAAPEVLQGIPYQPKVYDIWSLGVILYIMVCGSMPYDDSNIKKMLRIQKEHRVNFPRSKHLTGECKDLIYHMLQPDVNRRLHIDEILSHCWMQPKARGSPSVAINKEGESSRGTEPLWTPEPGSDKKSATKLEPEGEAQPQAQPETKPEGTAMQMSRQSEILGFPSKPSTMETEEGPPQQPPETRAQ

[6] = target: Tyrosine-protein kinase BTK (Homo sapiens) (UniProt Q06187); assay: Inhibition of human recombinant BTK at 40 nM related to control ULK1
Sequence of Tyrosine-protein kinase BTK (Homo sapiens) (Q06187 whole entry): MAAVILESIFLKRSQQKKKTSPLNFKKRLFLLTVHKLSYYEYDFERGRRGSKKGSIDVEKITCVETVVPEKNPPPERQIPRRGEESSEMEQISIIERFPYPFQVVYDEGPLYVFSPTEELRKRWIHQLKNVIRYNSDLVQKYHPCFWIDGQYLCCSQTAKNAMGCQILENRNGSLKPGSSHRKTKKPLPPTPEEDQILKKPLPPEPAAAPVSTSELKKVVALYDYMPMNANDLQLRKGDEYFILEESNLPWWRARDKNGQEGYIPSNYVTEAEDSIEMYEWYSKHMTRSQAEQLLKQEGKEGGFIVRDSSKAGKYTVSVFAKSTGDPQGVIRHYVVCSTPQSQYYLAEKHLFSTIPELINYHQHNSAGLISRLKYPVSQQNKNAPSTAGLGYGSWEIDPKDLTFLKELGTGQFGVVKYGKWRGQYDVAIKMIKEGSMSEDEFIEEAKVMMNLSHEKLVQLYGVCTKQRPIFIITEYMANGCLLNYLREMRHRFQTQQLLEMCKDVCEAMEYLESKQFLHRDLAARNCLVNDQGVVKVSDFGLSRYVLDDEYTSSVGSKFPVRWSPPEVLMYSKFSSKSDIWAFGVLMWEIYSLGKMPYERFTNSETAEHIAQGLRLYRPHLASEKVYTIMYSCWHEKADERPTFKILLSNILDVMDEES

[7] = target: Ribosomal protein S6 kinase alpha-4 (Homo sapiens) (UniProt O75676); assay: Inhibition of human recombinant MSK2 at 40 nM related to control ULK1
Sequence of Ribosomal protein S6 kinase alpha-4 (Homo sapiens) (O75676 whole entry, looked up): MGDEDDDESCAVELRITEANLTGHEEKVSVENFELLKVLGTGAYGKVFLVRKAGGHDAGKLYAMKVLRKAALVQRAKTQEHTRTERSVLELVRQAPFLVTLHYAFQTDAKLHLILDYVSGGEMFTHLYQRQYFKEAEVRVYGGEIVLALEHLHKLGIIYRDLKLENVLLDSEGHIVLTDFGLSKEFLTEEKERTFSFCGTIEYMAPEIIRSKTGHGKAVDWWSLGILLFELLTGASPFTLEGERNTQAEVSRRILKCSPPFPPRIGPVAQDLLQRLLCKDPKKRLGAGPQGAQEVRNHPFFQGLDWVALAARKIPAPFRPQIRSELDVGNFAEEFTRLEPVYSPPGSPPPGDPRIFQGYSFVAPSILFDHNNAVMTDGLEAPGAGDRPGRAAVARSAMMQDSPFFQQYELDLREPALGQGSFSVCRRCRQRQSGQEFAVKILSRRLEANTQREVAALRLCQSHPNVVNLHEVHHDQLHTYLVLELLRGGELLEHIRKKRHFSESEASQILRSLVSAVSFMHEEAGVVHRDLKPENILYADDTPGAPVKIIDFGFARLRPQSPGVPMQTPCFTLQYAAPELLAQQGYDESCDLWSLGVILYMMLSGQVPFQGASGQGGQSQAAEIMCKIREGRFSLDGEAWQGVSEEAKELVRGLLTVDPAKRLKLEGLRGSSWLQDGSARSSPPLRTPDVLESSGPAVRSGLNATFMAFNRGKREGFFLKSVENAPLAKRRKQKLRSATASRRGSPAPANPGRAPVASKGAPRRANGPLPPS

[8] = target: Serine/threonine-protein kinase 32C (Homo sapiens) (UniProt Q86UX6); assay: Inhibition of human recombinant YANK3 at 40 nM related to control ULK1
Sequence of Serine/threonine-protein kinase 32C (Homo sapiens) (Q86UX6 whole entry): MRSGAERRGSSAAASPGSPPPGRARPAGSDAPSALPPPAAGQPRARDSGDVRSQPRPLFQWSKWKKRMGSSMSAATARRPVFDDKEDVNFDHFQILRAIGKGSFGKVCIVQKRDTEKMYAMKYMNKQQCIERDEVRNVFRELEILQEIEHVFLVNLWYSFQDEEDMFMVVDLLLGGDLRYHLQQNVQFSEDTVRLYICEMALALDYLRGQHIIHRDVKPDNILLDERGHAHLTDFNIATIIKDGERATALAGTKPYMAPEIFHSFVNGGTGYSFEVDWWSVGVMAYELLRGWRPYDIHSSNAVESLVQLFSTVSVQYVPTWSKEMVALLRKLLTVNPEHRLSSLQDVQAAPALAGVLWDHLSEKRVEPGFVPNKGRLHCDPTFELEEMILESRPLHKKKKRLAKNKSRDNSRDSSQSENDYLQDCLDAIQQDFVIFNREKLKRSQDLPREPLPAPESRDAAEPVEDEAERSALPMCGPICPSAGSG

[9] = target: Death-associated protein kinase 1 (Homo sapiens) (UniProt P53355); assay: Inhibition of human recombinant DAPK1 at 15 nM in presence of ATP by radiometric assay relative to control
[10] = target: Ephrin type-A receptor 7 (Homo sapiens) (UniProt Q15375); assay: Inhibition of human recombinant EphA7 at 15 nM in presence of ATP by radiometric assay relative to control
Sequence of Ephrin type-A receptor 7 (Homo sapiens) (Q15375 28-998 limits assumed): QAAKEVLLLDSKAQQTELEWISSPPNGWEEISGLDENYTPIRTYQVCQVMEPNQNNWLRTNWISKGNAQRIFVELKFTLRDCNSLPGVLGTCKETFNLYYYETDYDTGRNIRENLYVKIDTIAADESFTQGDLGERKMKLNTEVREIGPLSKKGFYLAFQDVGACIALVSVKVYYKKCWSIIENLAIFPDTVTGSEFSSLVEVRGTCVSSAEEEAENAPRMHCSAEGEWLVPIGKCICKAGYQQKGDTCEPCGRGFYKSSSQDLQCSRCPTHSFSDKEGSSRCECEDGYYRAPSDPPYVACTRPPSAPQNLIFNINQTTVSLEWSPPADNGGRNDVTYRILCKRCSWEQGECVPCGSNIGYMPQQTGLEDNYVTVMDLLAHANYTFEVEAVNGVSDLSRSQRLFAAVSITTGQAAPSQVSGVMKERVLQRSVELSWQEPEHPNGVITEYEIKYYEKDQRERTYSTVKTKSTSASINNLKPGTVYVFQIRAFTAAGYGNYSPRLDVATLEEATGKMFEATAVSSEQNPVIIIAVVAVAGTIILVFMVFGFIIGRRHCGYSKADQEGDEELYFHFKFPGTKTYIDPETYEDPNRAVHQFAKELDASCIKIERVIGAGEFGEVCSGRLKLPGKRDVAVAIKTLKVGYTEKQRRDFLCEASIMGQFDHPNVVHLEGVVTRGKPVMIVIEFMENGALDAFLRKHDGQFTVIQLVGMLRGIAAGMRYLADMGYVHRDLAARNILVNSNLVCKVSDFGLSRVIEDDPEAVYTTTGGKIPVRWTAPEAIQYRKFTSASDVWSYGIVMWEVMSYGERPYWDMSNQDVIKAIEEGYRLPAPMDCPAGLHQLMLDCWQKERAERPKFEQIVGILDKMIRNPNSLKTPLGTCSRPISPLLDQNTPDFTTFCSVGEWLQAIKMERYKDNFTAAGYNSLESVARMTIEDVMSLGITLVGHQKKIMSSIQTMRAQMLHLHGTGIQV

[11] = target: Eukaryotic translation initiation factor 2-alpha kinase 1 (Homo sapiens) (UniProt Q9BQI3); assay: Inhibition of human recombinant HRI at 15 nM related to control ULK1
Sequence of Eukaryotic translation initiation factor 2-alpha kinase 1 (Homo sapiens) (Q9BQI3 whole entry): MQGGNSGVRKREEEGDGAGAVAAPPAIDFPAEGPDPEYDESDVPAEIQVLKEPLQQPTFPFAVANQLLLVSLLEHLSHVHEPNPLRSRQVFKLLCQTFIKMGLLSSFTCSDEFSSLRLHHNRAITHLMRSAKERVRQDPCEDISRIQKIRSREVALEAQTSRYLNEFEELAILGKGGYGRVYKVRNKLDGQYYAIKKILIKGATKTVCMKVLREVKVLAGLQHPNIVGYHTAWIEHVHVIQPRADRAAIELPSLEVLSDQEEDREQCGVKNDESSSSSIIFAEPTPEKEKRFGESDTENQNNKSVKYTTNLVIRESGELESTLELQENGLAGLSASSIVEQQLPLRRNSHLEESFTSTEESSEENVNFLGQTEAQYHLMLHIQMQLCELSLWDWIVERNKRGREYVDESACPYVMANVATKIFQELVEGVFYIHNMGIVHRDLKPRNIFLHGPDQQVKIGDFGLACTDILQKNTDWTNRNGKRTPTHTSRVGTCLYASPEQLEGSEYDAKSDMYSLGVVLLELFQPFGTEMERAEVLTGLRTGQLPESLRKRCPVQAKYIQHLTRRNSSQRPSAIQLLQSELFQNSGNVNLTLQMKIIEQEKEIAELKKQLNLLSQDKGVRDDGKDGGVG

[12] = target: Serine/threonine-protein kinase PLK2 (Homo sapiens) (UniProt Q9NYY3); assay: Inhibition of human recombinant PLK2 at 15 nM related to control ULK1
Sequence of Serine/threonine-protein kinase PLK2 (Homo sapiens) (Q9NYY3 whole entry, looked up): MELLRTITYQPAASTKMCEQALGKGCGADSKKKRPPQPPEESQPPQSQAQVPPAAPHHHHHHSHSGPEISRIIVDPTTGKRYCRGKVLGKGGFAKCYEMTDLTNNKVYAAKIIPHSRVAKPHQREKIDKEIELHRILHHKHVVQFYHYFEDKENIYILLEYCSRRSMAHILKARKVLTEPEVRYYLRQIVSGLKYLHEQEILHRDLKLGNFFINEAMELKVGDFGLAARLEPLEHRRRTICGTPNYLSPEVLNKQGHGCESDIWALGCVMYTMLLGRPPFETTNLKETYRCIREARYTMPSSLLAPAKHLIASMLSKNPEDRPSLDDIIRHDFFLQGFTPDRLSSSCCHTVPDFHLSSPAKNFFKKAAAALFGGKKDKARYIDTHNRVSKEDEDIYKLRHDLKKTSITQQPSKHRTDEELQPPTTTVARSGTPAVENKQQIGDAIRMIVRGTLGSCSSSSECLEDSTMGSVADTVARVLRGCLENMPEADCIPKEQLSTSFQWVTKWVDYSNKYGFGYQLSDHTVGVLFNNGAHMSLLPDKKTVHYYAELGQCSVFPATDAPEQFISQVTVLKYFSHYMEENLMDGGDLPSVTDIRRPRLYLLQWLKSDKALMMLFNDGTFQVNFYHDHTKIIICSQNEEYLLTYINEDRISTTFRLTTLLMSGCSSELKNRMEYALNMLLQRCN

[13] = target: Serine/threonine-protein kinase 4 (Homo sapiens) (UniProt Q13043); assay: Inhibition of human recombinant MST1 at 15 nM related to control ULK1

fold change (FC) [1]: 0
Compound: CNC(=O)c1ccccc1Oc1nc(Nc2cc(OC)c(OC)c(OC)c2)ncc1Br

inhibition [2]: 0% | inhibition [3]: 0% | inhibition [4]: 0% | inhibition [5]: 0% | fold change (FC) [6]: 0 | fold change (FC) [7]: 0 | fold change (FC) [8]: 0.07
Compound: O=C(N[C@@H](C1CC1)C(F)(F)F)c1cc(-c2cnn3cc(-c4ccc(F)cc4)cnc23)cs1

inhibition [10]: 0% | fold change (FC) [11]: 0 | fold change (FC) [12]: 0.05 | fold change (FC) [13]: 0.03
Compound: CC(C)[C@H](NC(=O)c1cc(-c2cnn3cc(-c4ccc(OCCN5CCCCC5)cc4)cnc23)cs1)C(F)(F)F
inhibition [9]: 4%
